# Experimental data reported in a melting point compilation (Tetko et al.; mined from patent text by program, amines drawn as free bases though some values may be those of a salt).
row,Compound,melting point [°C]
1,C=CCC1(CC)C(=O)NC(=O)NC1=O,157 to 159
2,Nc1ccc(S(=O)(=O)c2cc(C3=CCCCC3)nc(N3CCCC3)c2)cc1,237 to 238
3,COC(=O)c1ccc(N=Cc2ccc(OC)c(C34CC5CC(CC(C5)C3)C4)c2)cc1,180 to 182
4,CNC(=O)N1C(=O)CC(c2ccc(OC)c(OC3CCCC3)c2)N1C (stereo not given),65 to 68
5,Cc1c(N=C2NCCN2)cccc1N(C)C,116 to 118
6,CS(=O)(=O)NC1(c2ccc(I)cc2)CC1,101 to 102
7,CCCc1nc2cnc3cc(OCC(=O)N4CCOCC4)ccc3c2s1,133 to 136
8,COC(=O)c1cc(N2C(=O)CCC2=O)c(Cl)c(S(N)(=O)=O)c1,195 to 196
9,CCOC(=O)C1=C(C)Nc2nc(N3CCOCC3)nc(N3CCOCC3)c2C1c1ccc(Cl)cc1 (stereo not given),128
10,CO/C=C(\Oc1cc(C#C[Si](C)(C)C)ccc1C)C(=O)OC,125
11,CC1(COc2ccc(Cc3nnn[nH]3)cc2)CCCCC1O (stereo not given),103 to 108
12,COc1cc2c(cc1OC)C(=O)C(=CC=Cc1ccc(N(C)C)cc1)C2,210 to 213
13,CCOC(=O)c1oc2cccc(C(C)OC)c2c1C (stereo not given),67 to 69
14,OCc1c(Br)c(Br)c(Br)c(CO)c1Br,248 to 252
15,O=C(O)CCC/C=C\C[C@H]1[C@@H]2CC[C@@H](C2)[C@@H]1NC(=O)c1ccc(S(=O)(=O)n2cccc2)s1,113 to 114
16,CNc1nc(Cl)ccc1[N+](=O)[O-],114
17,COC(=O)c1cc(OC)c(OC)c2c1C=CCO2,88.5 to 90
18,CNc1cc2c(cc1[N+](=O)[O-])OCO2,170
19,COc1c(C(F)(F)F)cc([N+](=O)[O-])c(NN(C)C)c1[N+](=O)[O-],109 to 110
20,c1ccc2c(c1)SSSSS2,56 to 58
21,CCCCCC/C=C(\C(=O)Nc1ccc(C(=O)O)cc1)c1ccc2c(c1)C(C)(C)CCC2(C)C,183 to 184
22,Fc1ccccc1C1=CCc2nnc(-c3ccncc3)n2-c2ccc(Cl)cc21,198 to 200
23,CNC(=O)OC(Cn1cncn1)c1ccc(Cl)cc1Cl (stereo not given),204
24,CC(=O)COc1c([N+](=O)[O-])ccc(F)c1C(C)=O,64 to 65
25,CCc1c(C)c2c(c(OS(=O)(=O)c3ccc(C)cc3)c1C/C=C(\C)CCC(=O)OC)C(=O)OC2,101 to 103
26,CCOC(=O)c1cc([N+](=O)[O-])ccc1F,53 to 54
27,CC(C)OCCCNC(=O)C(C)(C(C)C)C(C)C,32
28,COc1ccc(-c2cnc(C(N)=O)nc2)cc1OC1CCCC1,235 to 238
29,Nc1ccc(N2CCN(CCCC3CCCC3)C2=O)cc1,97 to 99
30,CCOC(=O)C1=C(C)NC(C)=C(C(=O)OCC)C1c1ccccc1/C=C/C(=O)OC(C)(C)C,143 to 145

# Next, values leading:
row,melting point [°C],Compound
1,233 to 236,COc1cccc(N2C(=O)C3(CCCCO3)C(=O)c3cccnc32)c1 (stereo not given)
2,> 300,CCOC(=O)c1ncn2c1c(=O)[nH]c1cc(S(C)(=O)=O)ccc12
3,140 to 143,CC(C)CN(CC(=O)O)S(=O)(=O)c1ccc(N2CCC(c3ccccc3)CC2)cc1
4,97.5 to 98.5,COC(=O)CCC/C=C(\c1cc(F)cc(C(F)(F)F)c1)c1cc(C)c2on(C)c(=O)c2c1
5,207 to 209,CCOC(=O)c1ccc(COCc2csc3nc(C(=O)NCc4cccc(SC)c4)[nH]c(=O)c23)cc1
6,275 to 276,Cc1ccc(-c2[nH]c(C)nc2C(=O)Nc2nccs2)cc1
7,200 to 203,FC(F)(F)c1csc(Nc2cc3ccccc3cn2)n1
8,106 to 108,CN(C)c1ccc(C=CC(=O)c2ccc3c(c2)CCC3)cc1
9,130,CC(C)Cn1nc(-c2ccccc2)cc(COS(C)(=O)=O)c1=O
10,90 to 93,C[C@@H](NC(=O)C1CCC1)c1cccc(C(=O)c2ccccc2)c1
11,200 to 201,Cc1oc(-c2ccccc2)nc1COc1ccc2c(-c3ccccc3)c(COc3nn(-c4ccccc4)cc3C(=O)O)oc2c1
12,90,O=C(O)c1ccc(OCCNC(=O)C2Cc3ccccc3N2S(=O)(=O)c2ccc(-c3ccc(F)cc3Cl)cc2)cc1 (stereo not given)
13,57 to 59,CCCCCCNC(=O)Oc1ccc(Oc2ccccc2)cc1
14,157 to 158,CCC1C(=O)N(CC)CCc2c1ccc(Nc1ncc(Cl)c(Nc3ccccc3C(=O)NC)n1)c2OC (stereo not given)
15,228 to 230,CC(=O)Nc1cnn2c1-c1ccccc1NC2(C)C
16,135 to 137,Cn1c(=O)c2ccccc2n(Cc2ccc(F)cc2)c1=N
17,144 to 146,CCCCc1nc2c(N)nc3ccccc3c2n1CCCCCCl
18,95 to 96,COC(=O)c1ccccc1OCNC(=O)OC(C)(C)C
19,162 to 166,CNc1c(F)cc2c(=O)c(C(=O)O)cn(-c3ccc(F)c(N)c3)c2c1Cl
20,170,CC(C)(C)OC(=O)Nc1cc(OCC#N)c(C#Cc2ccccc2)cc1[N+](=O)[O-]

row,melting point [°C],Compound
1,204 to 205,NC(=O)CNC(=O)c1cccc(-c2ccc(Cl)c3cc(Cc4cc(F)cc(Cl)c4)sc23)c1
2,105 to 106,COc1ccc(C(C#Cc2ccccc2)Cc2nnc(C)o2)cc1OC1CCCC1 (racemic)
3,179,CCOC(=O)c1c(CC(=O)O)n(-c2ccc(OC(C)C)cc2)c2ccc(Oc3nc(C)ccc3C#N)cc12
4,122 to 124,O=C(C=Cc1ccc(F)cc1)C(c1ccccc1)c1ccccc1
5,238 to 240,CN1CCN(c2ccc(Nc3ncc4c(n3)SC(=Cc3ccc(OCc5ccccc5)cc3)C(=O)N4)cc2)CC1
6,118 to 120,COc1ccc(C2C(C#N)=C(N)Oc3c2ccc2cccnc32)cc1OC (stereo not given)
7,82 to 83,CC(C)Oc1c(C(N)=O)oc2ccccc12
8,175 to 178,COc1ccccc1-n1nc(S(=O)(=O)c2ccc(Cl)cc2)c(C)c(C#N)c1=O
9,166 to 169,Cn1nc(-c2ccc(S(C)(=O)=O)cc2)c(-c2ccc(F)cc2)c1C(F)(F)F
10,41 to 43,COc1ccc(SCC(=O)c2ccccc2)cc1C
11,156 to 158,COc1ccc(C(=O)Nc2ccccc2)cc1NC(=S)Nc1ccc(C)cc1
12,113 to 114,COC(=O)c1ccc(NC(=O)NCc2cccc(OC(C)=O)c2)cc1Cl
13,139 to 141,COc1cc(OCC(=O)N[C@H]2CCN(Cc3ccccc3)C2)ccc1C(=NN)C(=O)c1ccc(O)c(N)c1
14,145 to 148,CCc1nn(C(C)C)c2cc(C(=O)Nc3c(Cl)cncc3Cl)ccc12
15,118,O=C(Nc1ccc(Cl)cc1)Oc1ccc2c(c1)NCCC2
16,194 to 200,O=c1cc(-c2ccccc2)nc2ccn(-c3ccccc3)n12
17,76 to 77,CC1CC(C)(C)C(=O)C=C1Cc1ccc(Cl)cc1 (stereo not given)
18,163 to 164,O=C(Nc1ccc(CN2CCCCC2)cc1)C1=Cc2cc(-c3ccccc3)ccc2CC1
19,154 to 155,CC(=O)SC1CC(=O)N1C(C(=O)OCc1ccc([N+](=O)[O-])cc1)=P(c1ccccc1)(c1ccccc1)c1ccccc1 (stereo not given)
20,158 to 159,CN(C[C@H](O)c1cccc(OCC(=O)O)c1)c1cnc(-c2ccccc2)c(-c2ccccc2)n1
